{
  "source": "patent US20210221785A1",
  "about": "“AMINO-PYRIMIDONYL DERIVATIVES, A PROCESS FOR THEIR PREPARATION AND PHARMACEUTICAL COMPOSITIONS CONTAINING THEM” (LES LABORATOIRES SERVIER, priority 2018, published 2021)",
  "key": {"[1]": {"biological_target": "T1, His-His-USP7 (aa208-560, |C315A|) (Homo sapiens, UniProt Q93009, C315A)", "T1 construct": "His-His-USP7 (aa208-560, |C315A|); His-His (N)", "T1 sequence (Q93009 208-560 C315A)": "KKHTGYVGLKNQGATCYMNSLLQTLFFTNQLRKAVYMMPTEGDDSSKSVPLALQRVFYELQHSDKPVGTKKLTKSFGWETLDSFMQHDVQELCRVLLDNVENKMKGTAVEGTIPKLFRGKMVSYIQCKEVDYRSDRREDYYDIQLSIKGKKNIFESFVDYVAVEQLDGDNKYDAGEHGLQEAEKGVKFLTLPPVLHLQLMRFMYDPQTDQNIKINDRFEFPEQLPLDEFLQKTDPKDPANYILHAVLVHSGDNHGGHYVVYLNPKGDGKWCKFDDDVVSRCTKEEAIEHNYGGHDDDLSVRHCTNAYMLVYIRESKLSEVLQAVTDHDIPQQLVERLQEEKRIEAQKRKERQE", "experiment": "Evaluation of the inhibition of USP7 by the Fluorescence Intensity (FLINT) readings", "assay_type": "biochemical", "conditions": "0.25 nM His-His-USP7, compound incubated 60 minutes at 30° C., 500 nM Ubiquitin-Rhodamine-110 substrate; 50% reduction in kinetic rate", "in_short": "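IC50 reflects 50% reduction in kinetic rate of rhodamine-110 release (Ex485/Em535, reads every 3 min over 21 min), normalised to DMSO and no-enzyme controls, from an 11-point 4-parameter fit. Substrate is 500 nM Ub-Rh110, added after 60 min, 30 °C preincubation of compound with 0.25 nM USP7 aa208–560 C315A. Buffer is Bicine pH 8.0 with 10% DMSO.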"}, "[2]": {"system": "Z138 mantle cell lymphoma tumour cell lines", "experiment": "In vitro cytotoxicity, MTT assay", "assay_type": "cell-based", "conditions": "Homo sapiens, Z-138, 96 h, Z138 cells exposed to the test compounds for 96 hours; cell viability vs DMSO treated cells", "in_short": "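Z138 cells exposed to compounds for 96 hours, then MTT added for 4 hours. Viable cells quantified from formazan absorbance at 540 nm.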"}},
  "data": [
    {"smiles": "CO[C@]1(C#Cc2cccc(N)n2)CC[C@@H](C(=O)N2CC[C@](O)(Cn3cnc(Oc4ccc(F)cc4)c(N)c3=O)C(F)(F)C2)[C@H](c2ccccc2)C1", "note": "[Example 164, 5-amino-3-{[(4S)-1-[(1R,2R,4R)-4-[2-(6-aminopyridin-2-yl)ethynyl]-4-methoxy-2-phenylcyclohexanecarbonyl]-3,3-difluoro-4-hydroxypiperidin-4-yl]methyl}-6-(4-fluorophenoxy)-3,4-dihydropyrimidin-4-one]", "values": [
      {"measurement": "IC50", "setting": "[1]", "result": 24.6, "unit": "nM"},
      {"measurement": "IC50", "setting": "[2]", "result": 0.0165, "unit": "µM"}
    ]},
    {"smiles": "CO[C@]1(C#Cc2cccnn2)CC[C@@H](C(=O)N2CC[C@](O)(Cn3cnc(Oc4ccc(F)cc4)c(N)c3=O)C(F)(F)C2)[C@H](c2ccccc2)C1", "note": "[Example 165, 5-amino-3-{[(4S)-3,3-difluoro-4-hydroxy-1-{[(1R,2R,4R)-4-methoxy-2-phenyl-4-[2-(pyridazin-3-yl)ethynyl]cyclohexyl]carbonyl}piperidin-4-yl]methyl}-6-(4-fluorophenoxy)pyrimidin-4-one]", "values": [
      {"measurement": "IC50", "setting": "[1]", "result": 5.57, "unit": "nM"},
      {"measurement": "IC50", "setting": "[2]", "result": 0.00415, "unit": "µM"}
    ]},
    {"smiles": "CO[C@]1(C#Cc2ccccn2)CC[C@@H](C(=O)N2CC[C@](O)(Cn3cnc(Oc4ccc(F)cc4)c(N)c3=O)C(F)(F)C2)[C@H](c2ccccc2)C1", "note": "[Example 166, 5-amino-3-{[(4S)-3,3-difluoro-4-hydroxy-1-[(1R,2R,4R)-4-methoxy-2-phenyl-4-[2-(pyridin-2-yl)ethynyl]cyclohexanecarbonyl]piperidin-4-yl]methyl}-6-(4-fluorophenoxy)-3,4-dihydropyrimidin-4-one]", "values": [
      {"measurement": "IC50", "setting": "[1]", "result": 11.2, "unit": "nM"},
      {"measurement": "IC50", "setting": "[2]", "result": 0.00943, "unit": "µM"}
    ]},
    {"smiles": "Nc1c(Oc2ccc(F)cc2)ncn(C[C@@]2(O)CCN(C(=O)[C@@H]3CC[C@](F)(C#Cc4ncccn4)C[C@H]3c3ccccc3)CC2(F)F)c1=O", "note": "[Example 167, 5-amino-3-{[(4S)-3,3-difluoro-1-[(1R,2R,4R)-4-fluoro-2-phenyl-4-[2-(pyrimidin-2-yl)ethynyl]cyclohexanecarbonyl]-4-hydroxypiperldin-4-yl]methyl}-6-(4-fluorophenoxy)-3,4-dihydropyrimidin-4-one]", "values": [
      {"measurement": "IC50", "setting": "[1]", "result": 27.2, "unit": "nM"},
      {"measurement": "IC50", "setting": "[2]", "result": 0.0124, "unit": "µM"}
    ]},
    {"smiles": "Nc1c(Oc2ccc(F)cc2)ncn(C[C@@]2(O)CCN(C(=O)[C@@H]3CC[C@](F)(C#Cc4cccnn4)C[C@H]3c3ccccc3)CC2(F)F)c1=O", "note": "[Example 168, 5-amino-3-{[(4S)-3,3-difluoro-1-{[(1R,2R,4R)-4-fluoro-2-phenyl-4-[2-(pyridazin-3-yl)ethynyl]cyclohexyl]carbonyl}-4-hydroxypiperidin-4-yl]methyl}-6-(4-fluorophenoxy)pyrimidin-4-one]", "values": [
      {"measurement": "IC50", "setting": "[1]", "result": 3.48, "unit": "nM"},
      {"measurement": "IC50", "setting": "[2]", "result": 0.00157, "unit": "µM"}
    ]},
    {"smiles": "CO[C@@H]1CC[C@@](C#Cc2cc(C)cnn2)(C(=O)N2CC[C@](O)(Cn3cnc(Oc4ccc(F)cc4)c(N)c3=O)C(F)(F)C2)[C@@H](c2ccccc2)C1", "note": "[Example 169, 5-amino-3-{[(4S)-3,3-difluoro-4-hydroxy-1-[(1R,2R,4R)-4-methoxy-1-[2-(5-methylpyridazin-3-yl)ethynyl]-2-phenylcyclohexanecarbonyl]piperidin-4-yl]methyl}-6-(4-fluorophenoxy)-3,4-dihydropyrimidin-4-one]", "values": [
      {"measurement": "IC50", "setting": "[1]", "result": 8.8, "unit": "nM"},
      {"measurement": "IC50", "setting": "[2]", "result": 0.00218, "unit": "µM"}
    ]},
    {"smiles": "CO[C@]1(C#Cc2nnccc2C)CC[C@@H](C(=O)N2CC[C@](O)(Cn3cnc(Oc4ccc(F)cc4)c(N)c3=O)C(F)(F)C2)[C@H](c2ccccc2)C1", "note": "[Example 170, 5-amino-3-{[(4S)-3,3-difluoro-4-hydroxy-1-[(1R,2R,4R)-4-methoxy-4-[2-(4-methylpyridazin-3-yl)ethynyl]-2-phenylcyclohexanecarbonyl]piperidin-4-yl]methyl}-6-(4-fluorophenoxy)-3,4-dihydropyrimidin-4-one]", "values": [
      {"measurement": "IC50", "setting": "[1]", "result": 39.8, "unit": "nM"},
      {"measurement": "IC50", "setting": "[2]", "result": 0.0219, "unit": "µM"}
    ]},
    {"smiles": "Cc1ccnnc1C#C[C@@]1(F)CC[C@@H](C(=O)N2CC[C@](O)(Cn3cnc(Oc4ccc(F)cc4)c(N)c3=O)C(F)(F)C2)[C@H](c2ccccc2)C1", "note": "[Example 171, 5-amino-3-{[(4S)-3,3-difluoro-1-[(1R,2R,4R)-4-fluoro-4-[2-(4-methylpyridazin-3-yl)ethynyl]-2-phenylcyclohexanecarbonyl]-4-hydroxypiperidin-4-yl]methyl}-6-(4-fluorophenoxy)-3,4-dihydropyrimidin-4-one]", "values": [
      {"measurement": "IC50", "setting": "[1]", "result": 23.8, "unit": "nM"},
      {"measurement": "IC50", "setting": "[2]", "result": 0.0168, "unit": "µM"}
    ]},
    {"smiles": "Cc1cnnc(C#C[C@@]2(F)CC[C@@H](C(=O)N3CC[C@](O)(Cn4cnc(Oc5ccc(F)cc5)c(N)c4=O)C(F)(F)C3)[C@H](c3ccccc3)C2)c1", "note": "[Example 172, 5-amino-3-{[(4S)-3,3-difluoro-1-[(1R,2R,4R)-4-fluoro-4-[2-(5-methylpyridazin-3-yl)ethynyl]-2-phenylcyclohexanecarbonyl]-4-hydroxypiperidin-4-yl]methyl}-6-(4-fluorophenoxy)-3,4-dihydropyrimidin-4-one]", "values": [
      {"measurement": "IC50", "setting": "[1]", "result": 5.5, "unit": "nM"},
      {"measurement": "IC50", "setting": "[2]", "result": 0.00501, "unit": "µM"}
    ]},
    {"smiles": "COc1cnnc(C#C[C@@]2(OC)CC[C@@H](C(=O)N3CC[C@](O)(Cn4cnc(Oc5ccc(F)cc5)c(N)c4=O)C(F)(F)C3)C(c3ccccc3)C2)c1", "note": "(stereo partly drawn) [Example 173, 5-amino-3-{[(4S)-3,3-difluoro-4-hydroxy-1-[(1R,4R)-4-methoxy-4-[2-(5-methoxypyridazin-3-yl)ethynyl]-2-phenylcyclohexanecarbonyl]piperidin-4-yl]methyl}-6-(4-fluorophenoxy)-3,4-dihydropyrimidin-4-one]", "values": [
      {"measurement": "IC50", "setting": "[1]", "result": 14.6, "unit": "nM"},
      {"measurement": "IC50", "setting": "[2]", "result": 0.00521, "unit": "µM"}
    ]},
    {"smiles": "CO[C@]1(C#Cc2ncc(C)cn2)CC[C@@H](C(=O)N2CC[C@](O)(Cn3cnc(Oc4ccc(F)cc4)c(N)c3=O)C(F)(F)C2)[C@H](c2ccccc2)C1", "note": "[Example 174, 5-amino-3-{[(4S)-3,3-difluoro-4-hydroxy-1-[(1R,2R,4R)-4-methoxy-4-[2-(5-methylpyrimidin-2-yl)ethynyl]-2-phenylcyclohexanecarbonyl]piperidin-4-yl]methyl}-6-(4-fluorophenoxy)-3,4-dihydropyrimidin-4-one]", "values": [
      {"measurement": "IC50", "setting": "[1]", "result": 67.7, "unit": "nM"},
      {"measurement": "IC50", "setting": "[2]", "result": 0.0174, "unit": "µM"}
    ]},
    {"smiles": "CO[C@]1(C#Cc2cncnc2)CC[C@@H](C(=O)N2CC[C@](O)(Cn3cnc(Oc4ccc(F)cc4)c(N)c3=O)C(F)(F)C2)[C@H](c2ccccc2)C1", "note": "[Example 175, 5-amino-3-{[(4S)-3,3-difluoro-4-hydroxy-1-[(1R,2R,4R)-4-methoxy-2-phenyl-4-[2-(pyrimidin-5-yl)ethynyl]cyclohexanecarbonyl]piperidin-4-yl]methyl}-6-(4-fluorophenoxy)-3,4-dihydropyrimidin-4-one]", "values": [
      {"measurement": "IC50", "setting": "[1]", "result": 54, "unit": "nM"},
      {"measurement": "IC50", "setting": "[2]", "result": 0.00998, "unit": "µM"}
    ]},
    {"smiles": "CO[C@]1(C#Cc2nccc(C)n2)CC[C@@H](C(=O)N2CC[C@](O)(Cn3cnc(Oc4ccc(F)cc4)c(N)c3=O)C(F)(F)C2)[C@H](c2ccccc2)C1", "note": "[Example 176, 5-amino-3-{[(4S)-3,3-difluoro-4-hydroxy-1-[(1R,2R,4R)-4-methoxy-4-[2-(4-methylpyrimidin-2-yl)ethynyl]-2-phenylcyclohexanecarbonyl]piperidin-4-yl]methyl}-6-(4-fluorophenoxy)-3,4-dihydropyrimidin-4-one]", "values": [
      {"measurement": "IC50", "setting": "[1]", "result": 77.2, "unit": "nM"},
      {"measurement": "IC50", "setting": "[2]", "result": 0.037, "unit": "µM"}
    ]},
    {"smiles": "CO[C@]1(C#Cc2cnc(C)nc2)CC[C@@H](C(=O)N2CC[C@](O)(Cn3cnc(Oc4ccc(F)cc4)c(N)c3=O)C(F)(F)C2)[C@H](c2ccccc2)C1", "note": "[Example 177, 5-amino-3-{[(4S)-3,3-difluoro-4-hydroxy-1-[(1R,2R,4R)-4-methoxy-4-[2-(2-methylpyrimidin-5-yl)ethynyl]-2-phenylcyclohexanecarbonyl]piperidin-4-yl]methyl}-6-(4-fluorophenoxy)-3,4-dihydropyrimidin-4-one]", "values": [
      {"measurement": "IC50", "setting": "[1]", "result": 33.3, "unit": "nM"},
      {"measurement": "IC50", "setting": "[2]", "result": 0.0218, "unit": "µM"}
    ]}
  ]
}
